“And” between values parts separate entries of the source, which are not always exact repeats. Identical values can stand only once. Like-named read-outs stand apart in the source and are kept apart here.
What was measured:
rNaV1.4 channel [1] = biological target: T1, rNaV1.4 channel (Rattus norvegicus, UniProt P15390); assay: automated patch-clamp 17-pulse protocol (SDO, RFI, SSI), IonFlux Mercury, cell ensembles; type: cell-based; details: for Ki: inactivated-state affinity, calculated with equation of Bean et al. (1983)
T1 construct: expressed in transfected cells; host or cells: HEK 293
T1 sequence (P15390 whole entry): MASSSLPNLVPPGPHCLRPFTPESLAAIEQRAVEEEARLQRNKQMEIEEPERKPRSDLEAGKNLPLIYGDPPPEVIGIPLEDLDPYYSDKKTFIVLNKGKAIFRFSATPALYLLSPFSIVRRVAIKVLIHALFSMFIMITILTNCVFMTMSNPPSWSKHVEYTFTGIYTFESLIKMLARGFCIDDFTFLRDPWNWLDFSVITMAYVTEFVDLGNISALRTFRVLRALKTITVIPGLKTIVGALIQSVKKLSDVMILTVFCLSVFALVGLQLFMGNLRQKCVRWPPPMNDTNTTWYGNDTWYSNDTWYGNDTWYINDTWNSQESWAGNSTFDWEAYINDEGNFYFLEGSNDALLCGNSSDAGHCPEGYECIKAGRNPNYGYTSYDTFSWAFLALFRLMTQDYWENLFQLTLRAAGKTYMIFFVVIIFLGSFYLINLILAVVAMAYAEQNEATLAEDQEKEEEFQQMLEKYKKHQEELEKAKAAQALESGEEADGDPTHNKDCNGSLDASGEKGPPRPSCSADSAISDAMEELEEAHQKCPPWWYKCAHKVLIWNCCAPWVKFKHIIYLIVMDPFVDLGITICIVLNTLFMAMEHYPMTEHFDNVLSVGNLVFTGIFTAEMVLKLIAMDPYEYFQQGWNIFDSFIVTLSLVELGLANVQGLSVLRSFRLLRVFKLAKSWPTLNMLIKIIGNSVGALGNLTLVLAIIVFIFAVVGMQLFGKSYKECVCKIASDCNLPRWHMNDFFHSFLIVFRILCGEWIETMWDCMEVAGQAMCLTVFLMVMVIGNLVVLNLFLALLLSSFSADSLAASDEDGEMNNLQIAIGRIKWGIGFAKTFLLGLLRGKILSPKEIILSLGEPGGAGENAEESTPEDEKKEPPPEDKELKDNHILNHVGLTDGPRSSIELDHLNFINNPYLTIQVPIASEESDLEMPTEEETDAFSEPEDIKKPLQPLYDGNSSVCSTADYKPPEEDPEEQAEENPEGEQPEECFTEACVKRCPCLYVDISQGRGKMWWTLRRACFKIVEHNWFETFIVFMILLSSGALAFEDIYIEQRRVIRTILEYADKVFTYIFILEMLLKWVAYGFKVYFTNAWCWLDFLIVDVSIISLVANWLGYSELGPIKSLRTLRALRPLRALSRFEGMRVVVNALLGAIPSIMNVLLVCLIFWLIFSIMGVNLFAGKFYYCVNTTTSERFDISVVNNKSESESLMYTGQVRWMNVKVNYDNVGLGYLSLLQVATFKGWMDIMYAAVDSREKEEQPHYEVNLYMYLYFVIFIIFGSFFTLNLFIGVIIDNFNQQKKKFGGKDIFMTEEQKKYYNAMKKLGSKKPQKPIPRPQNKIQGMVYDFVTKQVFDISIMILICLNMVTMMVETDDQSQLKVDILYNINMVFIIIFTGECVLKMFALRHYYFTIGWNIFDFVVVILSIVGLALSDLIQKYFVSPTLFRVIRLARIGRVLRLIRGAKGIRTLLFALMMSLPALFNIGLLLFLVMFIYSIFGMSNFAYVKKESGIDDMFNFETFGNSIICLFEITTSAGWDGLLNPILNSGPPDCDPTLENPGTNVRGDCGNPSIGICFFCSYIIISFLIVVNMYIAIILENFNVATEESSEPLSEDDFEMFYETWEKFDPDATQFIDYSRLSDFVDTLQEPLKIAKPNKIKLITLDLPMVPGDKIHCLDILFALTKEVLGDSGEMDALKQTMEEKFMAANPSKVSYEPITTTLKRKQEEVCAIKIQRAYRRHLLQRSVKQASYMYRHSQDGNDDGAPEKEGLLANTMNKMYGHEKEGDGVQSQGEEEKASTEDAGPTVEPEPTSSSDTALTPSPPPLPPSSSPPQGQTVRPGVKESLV
Protocol: Cell culture and electrophysiology were done as described in the accompanying paper ([Lukacs et al., 2021]). The recombinant rNaV1.4 channel-expressing cell line was generated as described before ([Lukacs et al., 2018]). Transfected HEK 293 cells were maintained in Dulbecco’s Modified Eagle Medium, high glucose supplemented with 10% v/v fetal bovine serum, 100 U/ml of penicillin/streptomycin, and 0.4 mg/ml Geneticin (Life Technologies, Carlsbad, CA). For experiments, cells were dissociated from culture dishes with Accutase (Corning), shaken in serum-free medium for 60 min at room temperature, then centrifuged, and resuspended into the extracellular solution to a concentration of 5 × 10^6 cells/mL. Voltage-clamp recordings were performed on an IonFlux Mercury instrument (Fluxion Biosciences). The composition of solutions (in mM) was: Intracellular solution: 50 CsCl, 10 NaCl, 60 CsF, 20 EGTA, and 10 HEPES; pH 7.2 (adjusted with 1 M CsOH). Extracellular solution: 140 NaCl, 4 KCl, 1 MgCl2, 2 CaCl2, 5 D-Glucose, and 10 HEPES; pH 7.4 (adjusted with 1 M NaOH). The osmolality of intra-and extracellular solutions was set to ∼320 and ∼330 mOsm, respectively. Data were sampled at 20 kHz, and filtered at 10 kHz. Experiments were carried out at room temperature.
Each zone consists of 8 separate sections, which are distinct functional units, containing 12 wells: one well for the cell suspension, one well for the waste, two cell “traps” (intracellular solution-filled wells under negative pressure to establish high resistance seals and then whole-cell configuration), and eight compound wells. […] Two kinds of microfluidic plates are manufactured: In single-cell plates, each cell trap contains a single hole and therefore catches a single cell. In “ensemble plates” there are 20 holes in each cell trap, and 20 cells are recorded simultaneously. […] From the 16 cell ensembles of each zone, we chose n = 6 ensembles for analysis.
We used a complex 17-pulse voltage protocol (Figure 1A), described in detail in the accompanying paper ([Lukacs et al., 2021]), which allowed the assessment of gating kinetics and gating equilibrium in the absence and the presence of inhibitor/modulator compounds. The protocol investigated the effect of different durations of depolarizations: 2.5, 7.5, 22.5, and 67.5 ms with 2.5 ms hyperpolarizing gaps between them; this section (pulses #1 to #5) is shown by different shades of green in Figure 1, and was named “state-dependent onset” (SDO). Next, pulses #6 to #12, as well as #1 investigated the effect of different durations of hyperpolarizations (1, 2, 4, 8, 16, 32, 64, and 498 ms, separated by 5 ms depolarizations) in the section shown by different shades of blue, and named “recovery from inactivation” (RFI). Finally, pulses #12 to #17 assessed the resting-inactivated equilibrium at different membrane potentials in the section named “steady-state inactivation” (SSI). The three sections were similar to protocols we used in previous studies ([Lukacs et al., 2018]; [Földi et al., 2021]).
In addition to automatic fitting, described in the accompanying paper ([Lukacs et al., 2021]), in this study we used a different approach to process SDO, RFI, and SSI data. This analysis focused on deriving compound-specific but concentration-independent descriptors of the mechanism of action, which can lead to a more thorough understanding of the sub-processes involved in drug action, and which can later serve as a basis for constructing kinetic models for the simulation of drug-specific effects. All data analysis was done in Microsoft Excel (RRID:SCR_016137) environment, using VBA routines to accelerate repetitive data management tasks. For each of the 17 pulses peak amplitudes were measured after removing capacitive artifacts and subtracting the leak.

rNaV1.4 channel [2] = biological target: T1, rNaV1.4 channel; assay: as above; type: cell-based; details: pulse #5, SDO section; read-out: IC50 #5 (after 65.7 ms depol.)
sodium channel [3] = details: from 10 Hz to 50 Hz; ref Desaphy et al. (2014); cited from earlier work
sodium channel [4] = biological target: sodium channel; set-up: method as in Lenkey et al., 2010; details: resting-state; ref Lenkey et al., 2010; read-out: KR; cited from earlier work
sodium channel [5] = biological target: sodium channel; set-up: method as in Vladimirov et al., 2000; details: resting-state; ref Vladimirov et al., 2000; read-out: KR; cited from earlier work
[6] = 1st pulse-evoked current, resting-state estimate, n = 6 ensembles, read-out: IC50 #1 (estimated KR)
[7] = pulse #7, RFI section, read-out: IC50 #7 (after 1 ms hyperpol.)
[8] = pulse #17, SSI section, read-out: IC50 #17 (−70 mV)
[9] = time range within which effective inhibitor potency changes upon depolarization
[10] = time range within which effective inhibitor potency changes upon hyperpolarization

Row | SMILES | KR/KI ratio (rNaV1.4 channel [1]) | macro-offset time constant (rNaV1.4 channel [1]) | micro-offset range (rNaV1.4 channel [1]) | micro-onset range (rNaV1.4 channel [1]) | IC50 (rNaV1.4 channel [2]) | IC50 (rNaV1.4 channel [1]; [6]) | Ki (rNaV1.4 channel [1]) | IC50 (rNaV1.4 channel [1]; [7]) | IC50 (rNaV1.4 channel [1]; [8]) | macro-offset time constant (rNaV1.4 channel [1]; offset upon drug washout) | KR/KI ratio (rNaV1.4 channel [1]; state-dependence) | micro-onset range (rNaV1.4 channel [1]; [9]) | micro-offset range (rNaV1.4 channel [1]; [10]) | further results
1 | NC1=N[C@H](O)[C@H]2[C@H]3O[C@]4(O)O[C@@H]([C@@H](O)[C@@]2(N1)[C@@H]4O)[C@]3(O)CO [Tetrodotoxin, tetrodotoxin] | 1.7 ± 0.11 | 22.9 ± 1.50 s | 1 to 10 ms | 1 to 100 ms |  |  |  |  |  |  |  |  |  | extent of change of EIP during SDO, RFI and SSI sections (rNaV1.4 channel [1]): less than 2 fold; IC50 (rNaV1.4 channel [1]; read-out: IC50 #1 (estimated KR)): 0.028 µM; IC50 (rNaV1.4 channel [1]; read-out: IC50 #5 (after 65.7 ms depol.)): 0.015 µM; IC50 (rNaV1.4 channel [1]; read-out: IC50 #7 (after 1 ms hyperpol.)): 0.018 µM; IC50 (rNaV1.4 channel [1]; read-out: IC50 #17 (−70 mV)): 0.018 µM
2 | CCN(CC)CC(=O)Nc1c(C)cccc1C [Lidocaine, lidocaine] | 69.7 and 69.7 ± 20.9 | 1.72 ± 0.05 s | 10 to 500 ms | 1 to 100 ms | 31.9 ± 2.28 µM | 1280 µM | 18.4 ± 1.52 µM | 71.7 ± 5.83 µM | 22.8 ± 2.04 µM |  |  |  |  | time for micro-onset to be complete (rNaV1.4 channel [1]): more than 100 ms
3 | Nc1nc2ccc(OC(F)(F)F)cc2s1 [Riluzole, riluzole] |  |  |  |  | 27.4 ± 6.44 µM | 1360 µM | 5.63 ± 3.35 µM | 42.1 ± 3.62 µM | 6.86 ± 4.36 µM | 13.6 ± 0.71 s |  |  |  | inhibition, pulses #1, #6 and #12 (rNaV1.4 channel [1]; 100 µM, single cell ensemble): no inhibition; inhibition, pulses #7 and #17 (rNaV1.4 channel [1]; 100 µM, single cell ensemble): almost full inhibition; increase of apparent affinity (sodium channel [3]): 48 fold
4 | CCOC(=O)c1ccc(N)cc1 [Benzocaine, benzocaine] |  |  |  |  | 1300 µM | 2240 µM | 79.4 ± 3.9 µM | 290 ± 22.3 µM | 170 ± 10.3 µM | 1.42 ± 0.59 s | 28.3 ± 3.8 | 0.1 to 2 ms | 0.1 to 4 ms | fraction of channels inhibited (rNaV1.4 channel [1]; 100 µM, indicated by KI calculated from SSI data): more than half; channels recovered (rNaV1.4 channel [1]; at 2 ms gap duration): 70–90%; time for micro-offset to be complete (rNaV1.4 channel [1]; offset of effect upon hyperpolarization): ≤ 4 ms; time for micro-onset to be complete (rNaV1.4 channel [1]; onset of effect upon depolarization): ≤ 2.5 ms; KR/KI ratio (rNaV1.4 channel [1]; state-dependence, listed as benzocaine): 28.3
5 | CCCCN1CCCCC1C(=O)Nc1c(C)cccc1C (stereo not shown) [Bupivacaine, bupivacaine] |  |  |  |  | 27.3 ± 1.45 µM | 94.6 ± 10.7 µM | 12.7 ± 1.22 µM | 33.5 ± 2.32 µM | 16.3 ± 1.7 µM | 3.56 ± 0.43 s | 7.48 ± 0.68 | 100–1,000 ms | 100–1,000 ms | Kd (sodium channel [4]): ~619 µM; macro-offset time constant (rNaV1.4 channel [1]; offset upon drug washout, listed as bupivacaine): 3.56 s; KR/KI ratio (rNaV1.4 channel [1]; state-dependence, listed as bupivacaine): 7.48; Kd (sodium channel [5]): ~317 µM

Source: publication PMC8419314, “Characterization of Compound-Specific, Concentration-Independent Biophysical Properties of Sodium Channel Inhibitor Mechanism of Action Using Automated Patch-Clamp Electrophysiology” (Frontiers in Pharmacology, 2021)
